Results taken from patent US4421912A, “Cephalosporin derivatives” (Takeda Chemical Industries, Ltd., priority 1973, dated 1983).
Converted amounts (≈) assume the structure as drawn. Like-named read-outs stand apart in the source and are kept apart here.

Columns and labels:
E. coli NIHJ JC-2 = assay: Antibacterial spectra, agar dilution method; format: cell-based; details: Escherichia coli
Description: (§1) (mcg/ml., agar dilution method)
as §1
(§2) (mcg/ml, agar dilution method)
(§3) (mcg./ml., agar dilution method)

S. aureus 209P = assay: Antibacterial spectra, agar dilution method; format: cell-based; details: for MIC: Staphylococcus aureus, 209P
Description: as §1, §1, §2, §3

S. aureus 1840 = assay: Antibacterial spectra, agar dilution method; format: cell-based
Description: as §1, §1, §2, §3

E. coli 0-111 = assay: Antibacterial spectra, agar dilution method; format: cell-based
Description: as §1, §1, §2, §3

P. morganii Eb53 = assay: Antibacterial spectra, agar dilution method; format: cell-based; details: Morganella morganii
Description: as §2, §3

E. coli T-7 = assay: Antibacterial spectra, agar dilution method; format: cell-based; details: Escherichia coli
Description: (§4) |(mcg./ml., agar dilution method)

P. vulgaris IFO 3988 = assay: Antibacterial spectra, agar dilution method; format: cell-based; details: Proteus vulgaris, IFO3988; P. vulgaris IFO 3988; agar dilution method; Table 11; read-out: Antibacterial spectra
Description: as §4

K. pneumoniae DT = assay: Antibacterial spectra, agar dilution method; format: cell-based; details: Klebsiella pneumoniae
Escherichia coli 0111 = assay: Protective Effect on Infected Mice; format: in vivo; details: Escherichia coli, 0111, sc, 168 h, Table 14; male ICR/SLC mice; i.p. E. coli 0111; single subcutaneous dose immediately after challenge; 7 days; read-out: ED50
Description: Protective Effect (ED50 * , mg/kg) on Infected Mice
*Test animals: male mice (ICR/SLC) 5 mice per group per single dose
Infection: intraperitoneally with Escherichia coli 0111
Administration: a single subcutaneous dose immediately after challenge
Observation period: 7 days
*Test animals: male mice (ICR/SLC) 5 mice per group single dose

[1] = NIHJJC2, read-out: Antibacterial spectra, E. coli NIHJ JC-2, Table 11
[2] = read-out: Antibacterial spectra, S. aureus 209P, Table 11
[3] = Staphylococcus aureus, 1840, read-out: Antibacterial spectra, S. aureus 1840, Table 11
[4] = Escherichia coli, 0111, E. coli 0-111, Table 11
[5] = EB53, read-out: Antibacterial spectra
[6] = T7, E. coli T-7, agar dilution method, Table 11, read-out: Antibacterial spectra
[7] = NIHJJC2, E. coli NIHJ JC-2, Table 11, read-out: Antibacterial spectra
[8] = P. morganii Eb53, agar dilution method, Table 11, read-out: Antibacterial spectra
[9] = T7, read-out: Antibacterial spectra
[10] = read-out: Antibacterial spectra, S. aureus 209P, tables in the Examples
[11] = Staphylococcus aureus, 1840, read-out: Antibacterial spectra, S. aureus 1840, tables in the Examples
[12] = Escherichia coli, 0111, E. coli 0-111, tables in the Examples

Row | Compound | MIC (E. coli NIHJ JC-2; [1]) | MIC (S. aureus 209P; [2]) | MIC (S. aureus 1840; [3]) | MIC (E. coli 0-111; [4]) | MIC (P. vulgaris IFO 3988) | MIC (K. pneumoniae DT; Table 11) | MIC (E. coli NIHJ JC-2; [7]) | other results
1 | Cn1c(N)nnc1SCC1=C(C(=O)O)N2C(=O)C(NC(=O)Cc3csc(N)n3)C2SC1 (stereo not shown) [Compound 31] | 0.2 µg/mL (≈ 0.414 µM) | 0.78 µg/mL (≈ 1.62 µM) | 1.56 µg/mL (≈ 3.23 µM) | ≤ 0.1 µg/mL | 0.2 µg/mL (≈ 0.414 µM) | ≤ 0.1 µg/mL | – | MIC (P. morganii Eb53; [5]): 1.56 µg/mL (≈ 3.23 µM); MIC (E. coli T-7; [6]): 3.13 µg/mL (≈ 6.49 µM)
2 | Cc1cnc(SCC2=C(C(=O)O)N3C(=O)C(NC(=O)Cc4csc(N)n4)C3SC2)nc1N (stereo not shown) [Compound 32] | – | 0.2 µg/mL (≈ 0.405 µM) | 1.56 µg/mL (≈ 3.16 µM) | 0.78 µg/mL (≈ 1.58 µM) | 0.78 µg/mL (≈ 1.58 µM) | 0.39 µg/mL (≈ 0.79 µM) | 1.56 µg/mL (≈ 3.16 µM) | MIC (P. morganii Eb53; [8]): 100 µg/mL (≈ 203 µM); MIC (E. coli T-7; [6]): 50 µg/mL (≈ 101 µM)
3 | Cc1nnc(SCC2=C(C(=O)O)N3C(=O)C(NC(=O)Cc4csc(N)n4)C3SC2)o1 (stereo not shown) [Compound 38] | – | 0.39 µg/mL (≈ 0.832 µM) | 0.78 µg/mL (≈ 1.66 µM) | 0.39 µg/mL (≈ 0.832 µM) | – | 0.39 µg/mL (≈ 0.832 µM) | 1.56 µg/mL (≈ 3.33 µM) | MIC (P. morganii Eb53; [8]): 25 µg/mL (≈ 53.4 µM)
4 | Nc1nc(CC(=O)NC2C(=O)N3C(C(=O)O)=C(CSc4nnc[nH]4)CSC23)cs1 (stereo not shown) [Compound 41] | 0.78 µg/mL (≈ 1.72 µM) | 0.39 µg/mL (≈ 0.86 µM) | 0.78 µg/mL (≈ 1.72 µM) | 0.78 µg/mL (≈ 1.72 µM) | – | 0.2 µg/mL (≈ 0.441 µM) | – | MIC (P. morganii Eb53; [8]): 25 µg/mL (≈ 55.1 µM)
5 | Cc1nnc(SCC2=C(C(=O)O)N3C(=O)C(NC(=O)Cc4csc(N)n4)C3SC2)n1C (stereo not shown) [Compound 42] | 0.2 µg/mL (≈ 0.415 µM) | 0.39 µg/mL (≈ 0.81 µM) | 1.56 µg/mL (≈ 3.24 µM) | 0.1 µg/mL (≈ 0.208 µM) | – | 0.1 µg/mL (≈ 0.208 µM) | – | MIC (P. morganii Eb53; [5]): 1.56 µg/mL (≈ 3.24 µM); ED50 (Escherichia coli 0111): 0.38 mg/kg
6 | Cn1ccnc1SCC1=C(C(=O)O)N2C(=O)C(NC(=O)Cc3csc(N)n3)C2SC1 (stereo not shown) [Compound 44] | 0.78 µg/mL (≈ 1.67 µM) | 0.39 µg/mL (≈ 0.836 µM) | 1.56 µg/mL (≈ 3.34 µM) | 0.39 µg/mL (≈ 0.836 µM) | 0.39 µg/mL (≈ 0.836 µM) | 0.39 µg/mL (≈ 0.836 µM) | – | MIC (E. coli T-7; [9]): 6.25 µg/mL (≈ 13.4 µM)
7 | Nc1nc(CC(=O)NC2C(=O)N3C(C(=O)O)=C(CSc4nnc(C(F)(F)F)s4)CSC23)cs1 (stereo not shown) [Compound 45] | – | ≤ 0.2 µg/mL | 0.78 µg/mL (≈ 1.45 µM) | 0.78 µg/mL (≈ 1.45 µM) | 0.78 µg/mL (≈ 1.45 µM) | 0.78 µg/mL (≈ 1.45 µM) | 3.13 µg/mL (≈ 5.81 µM) | MIC (E. coli T-7; [6]): 25 µg/mL (≈ 46.4 µM)
8 | Cc1csc(SCC2=C(C(=O)O)N3C(=O)C(NC(=O)Cc4csc(N)n4)C3SC2)n1 (stereo not shown) [Compound 47] | – | ≤ 0.2 µg/mL | 0.78 µg/mL (≈ 1.61 µM) | 0.78 µg/mL (≈ 1.61 µM) | 0.39 µg/mL (≈ 0.806 µM) | 0.39 µg/mL (≈ 0.806 µM) | 1.56 µg/mL (≈ 3.23 µM) | MIC (E. coli T-7; [9]): 12.5 µg/mL (≈ 25.8 µM)
9 | Cc1nnc(SCC2=C(C(=O)O)N3C(=O)C(NC(=O)Cc4csc(=O)[nH]4)[C@H]3SC2)s1 (stereo partly shown) [Compound 55, 7-[2-(2-oxo-4-thiazolin-4-yl)acetamido]-3-(5-methyl-1,3,4-thiadiazol-2-yl)thiomethyl-3-cephem-4-carboxylic acid] | – | 0.2 µg/mL (≈ 0.412 µM) | 0.78 µg/mL (≈ 1.61 µM) | 0.78 µg/mL (≈ 1.61 µM) | – | 1.56 µg/mL (≈ 3.21 µM) | 1.56 µg/mL (≈ 3.21 µM) | –
10 | Cn1nnnc1SCC1=C(C(=O)O)N2C(=O)C(NC(=O)Cc3csc(=S)[nH]3)C2SC1 (stereo not shown) [Compound 64] | – | < 0.78 µg/mL | 1.56 µg/mL (≈ 3.21 µM) | 1.56 µg/mL (≈ 3.21 µM) | – | < 0.78 µg/mL | – | –
11 | Cn1nnnc1SCC1=C(C(=O)O)N2C(=O)C(NC(=O)Cc3csc(=O)[nH]3)[C@H]2SC1 (stereo partly shown) [Example 2, 7-[2-(2-oxo-4-thiazolin-4-yl)acetamido]-3-(1-methyltetrazol-5-yl)thiomethyl-3-cephem-4-carboxylic acid] | – | – | – | – | – | – | – | MIC (E. coli NIHJ JC-2; NIHJJC2, read-out: Antibacterial spectra, E. coli NIHJ JC-2, tables in the Examples): < 0.78 µg/mL; MIC (S. aureus 209P; [10]): < 0.78 µg/mL; MIC (S. aureus 1840; [11]): < 0.78 µg/mL; MIC (E. coli 0-111; [12]): < 0.78 µg/mL; MIC (K. pneumoniae DT; tables in the Examples): < 0.78 µg/mL
12 | O=C(Cc1csc(=O)[nH]1)NC1C(=O)N2C(C(=O)O)=C(CSc3nncs3)CS[C@H]12 (stereo partly shown) [Example 4, 7-[2-(2-oxo-4-thiazolin-4-yl)acetamido]-3-(1,3,4-thiadiazol-2-yl)thiomethyl-3-cephem-4-carboxylic acid] | – | – | – | – | – | – | – | MIC (S. aureus 209P; [10]): < 0.78 µg/mL; MIC (S. aureus 1840; [11]): < 0.78 µg/mL; MIC (E. coli 0-111; [12]): 1.56 µg/mL (≈ 3.31 µM); MIC (K. pneumoniae DT; tables in the Examples): 1.56 µg/mL (≈ 3.31 µM)
13 | CC(=O)OCC1=C(C(=O)[O-])N2C(=O)C(NC(=O)Cc3csc(=S)[nH]3)[C@H]2SC1.[Na+] (stereo partly shown) [Example 21, sodium 7-[2-(2-thioxo-4-thiazolin-4-yl)-acetamido]-3-acetoxymethyl-3-cephem-4-carboxylate] | – | – | – | – | – | – | – | Antibacterial spectra (S. aureus 209P; S. aureus 209P, tables in the Examples): < 0.78 µg/mL; Antibacterial spectra (S. aureus 1840; S. aureus 1840, tables in the Examples): 1.56 µg/mL
